Consider 35 molecules from article PMC11982498 (Redox Biology, 2025).

The term KD denotes the constant that tells how readily two partners part at equilibrium. High values mean a looser complex, low ones a tighter complex. A word on the Kd: it is a measure of binding affinity in units of concentration.

Assay [1] relates to bio-BCL-2 (BCL-2 IM) (DNA, i motif) CAGCCCCGCTCCCGCCCCCTTCCTCCCGCGCCCGCCCCT
The assay can be described thus: SPR. Conditions: K+ 100 mM; 20 mM MES, pH 5.5, 25 °C.

The target of assay [2] is BCL-2 gene promoter i-motif. In words: SPR binding to BCL-2 promoter i-motif. Conditions: MES buffer pH 5.5, 25 °C. The protocol:
SPR measurement was performed on a ProteOn XPR36 protein interaction array system (Bio-Rad Laboratories, Hercules, California, USA) using a Neutravidin-coated GLH sensor chip. BCL-2 i-motif binding analysis was performed following a published method without significant modification. For immobilization, 5′-biotin-labeled DNA oligomers at 800 nM annealed in 1 × MES buffer at pH 5.5 by heating at 95 °C for 5 min, were attached to a reptavidin-coated sensor chip. Compounds were prepared through serial dilution with flowing buffer (20 mM MES, 100 mM KCl, pH 5.5 for i-motif) in at least 6 concentrations, which were simultaneously injected at a flow rate of […] for a 120 s of association phase, followed by 250 s of dissociation phase at 25 °C. Langmuir model was used for fitting kinetic data, which was analyzed with ProteOn manager software. KD values were determined through equation KD = kd/ka. Compound A22 was used as a positive control, and other compounds were selected as candidates only if their KD values for binding to BCL-2 i-motif were similar to that of A22.
Background: In SPR one partner is held on a chip, and binding of the other changes the refractive index at the surface.

The target of assay [3] is T1, Aβ1-42 (Homo sapiens, UniProt P05067).
T1 construct: Aβ1-42 was purchased from Gill Biochemicals Ltd (Shanghai, China); purchased Gill Biochemicals Ltd (Shanghai, China)
T1 sequence (P05067 672-713 limits assumed): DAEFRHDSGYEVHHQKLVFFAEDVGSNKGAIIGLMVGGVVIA
The assay can be described thus: Congo red binding assay. In kind it is biochemical. Conditions: 20 μM compound, 72 h. The method, then: A total of 30 μM Congo red (Aladdin, Shanghai, China) solution (20 mM potassium phosphate, 50 mM NaCl, pH 7.4) was prepared and filtered with a 0.45 μm filter. The Aβ1-42 solutions (30 μM) were co-incubated with B14 (20 μM), A22 (20 μM), or Curcumin (20 μM) at 37 °C protected from light for 72h. The Aβ1-42 solution was mixed with equal volume of Congo red solution, followed by incubation for 30 min. A spectral region from 400 nm to 650 nm was measured by using a UV–vis spectrophotometer (AoE, China).
A total of 30 μM Congo red solution (20 mM potassium phosphate, 50 mM NaCl, pH 7.4) was prepared and filtered with a 0.45 μm filter. The Aβ1-42 solutions (30 μM) were co-incubated with B14 (20 μM) and Curcumin (20 μM) at 37 °C protected from light for 72h. The Aβ1-42 solution was mixed with equal volume of Congo red solution and incubated for 30 min. A spectral region from 400 nm to 650 nm was analyzed by using a UV-vis spectrophotometer (AoE, China).

Assay [4] addresses T1, Aβ1-42. In words: Thioflavine T fluorescence spectroscopy assay (time course to 96 h). In kind it is biochemical. Conditions: 20 μM compound, Aβ1-42 incubated for 96 h. The method, then:
The Aβ1-42 solutions (100 μM) were co-incubated with B14 (20 μM) or Curcumin (20 μM) at 37 °C protected from light for 96 h. 30 μL of Aβ1-42 solution was taken at different time points (0 h, 10 h, 24 h, 48 h, 72 h, 96 h), mixed fully with 400 μL of ThT solution (15 μM), and incubated in the dark for 30 min. The fluorescence signal was recorded by using a Cary Eclipse fluorescence spectrophotometer (Varian, USA) with the following setting: excitation wavelength at 440 nm, emission wavelength at 480 nm, and slit width of 20 nm.
The Aβ1-42 solutions (100 μM) were co-incubated with B14 (20 μM) and Curcumin (20 μM) at 37 °C protected from light for 96 h. 30 μL of Aβ1-42 solutions were taken at different time points (0 h, 10 h, 24 h, 48 h, 72 h, 96 h), mixed fully with 400 μL of ThT solution (15 μM), and incubated in the dark for 30 min. The fluorescence signal was recorded by a Cary Eclipse fluorescence spectrophotometer (Varian, USA) with excitation wavelength at 440 nm, emission wavelength at 480 nm, and slit width of 20 nm.

For assay [5], the target named is T1, Aβ1-42. The assay can be described thus: Dot blot of Aβ1-42 fibril aggregation. The conditions noted are these: 20 μM compound, 24 h. In kind it is biochemical.
Description: After incubation at 37 °C for 24 h, 10 μL aliquots of 20 μM Aβ1-42 reaction mixtures were spotted onto nitrocellulose membranes. Membranes were blocked for 2 h with 5 % non-fat milk in TBS. After washing, membranes were incubated with the anti-Aβ fibril antibody (1:1,000, CST, USA) dissolved in TBS containing 3 % bovine serum albumin (BSA, Beyotime, Jiangsu, China) and 0.01 % Tween-20 (Solarbio, Beijing, China), and developed using an alkaline-phosphatase anti-rabbit secondary antibody (1:5,000, Proteintech, China). The bands were then detected using an enhanced chemiluminescence (ECL) kit (Millipore, USA).
After incubation at 37 °C for 24h, 10 μL aliquots of 20 μM Aβ1-42 reactions were spotted onto nitrocellulose membranes. The membranes were blocked for 2 h with 5% non-fat milk in TBS. After washing, the membranes were incubated with the anti-Aβ fibril antibody (1:1000 dilution) dissolved in TBS containing 3% BSA and 0.01% Tween-20, and then developed using an alkaline-phosphatase antirabbit secondary antibody (1:5000 dilution). Invitrogen's Western Breeze Chemiluminescent kit was used to visualize the protein dots, and these dots were imaged using a FUJIFILM Luminescent Image Analyzer LAS-1000CH.

For `O=c1c2ccccc2n(-c2ccc3occc3c2)c2ccc(NCCCN3CCOCC3)cc12` [Compound A5], the KD in assay [1] was > 50 µM. Moreover, the Kd in assay [2] is > 50 µM.
As for `CC1CCN(CCC(=O)Nc2ccc3c(c2)c(=O)c2ccccc2n3-c2ccc3occc3c2)CC1`, the KD in assay [1] was > 50 µM.
With `COc1cc(/C=C/C(=O)CC(=O)/C=C/c2ccc(O)c(OC)c2)ccc1O` [Curcumin, reference compound], the “absorbance of Congo red in the Aβ1-42 sample” value in assay [3] was “some inhibitory effect, but much lower than B14”. The “decrease of ThT fluorescence intensity” value in assay [4] is reported as 20.83 ± 1.68%. The “formation of Aβ fibers (dot blot)” value in assay [5] is listed as “relatively less significant effect compared with B14”.
`O=c1c2cc(NCCCN3CCCC3)ccc2n(-c2ccc3occc3c2)c2ccc(NCCCN3CCCC3)cc12` [Compound B7]: the equilibrium dissociation constant (KD) in assay [1] was > 50 µM. Moreover, the Kd in assay [2] is > 50 µM.
As for `CCN(CC)CCCNc1ccc2c(c1)c(=O)c1cc(NCCCN(CC)CC)ccc1n2-c1ccc2occc2c1` [Compound B1], in assay [2], the Kd is > 50 µM.
Regarding `O=C(CCCN1CCOCC1)Nc1ccc2c(c1)c(=O)c1ccccc1n2-c1ccc2occc2c1` [Compound A11], the KD in assay [1] was > 50 µM. The Kd in assay [2] was > 50 µM.
On to `CCN(CC)CCC(=O)Nc1ccc2c(c1)c(=O)c1cc(NC(=O)CCN(CC)CC)ccc1n2-c1ccc2occc2c1` [Compound B13], for which, in assay [1], the KD is > 50 µM. Also, in assay [2], the Kd is > 50 µM.
On to `CN(C)CCNc1ccc2c(c1)c(=O)c1cc(NCCN(C)C)ccc1n2-c1ccc2occc2c1` [Compound B8], for which the KD in assay [1] is > 50 µM. The Kd in assay [2] is > 50 µM.
On to `O=c1c2cc(NCCN3CCNCC3)ccc2n(-c2ccc3occc3c2)c2ccc(NCCN3CCNCC3)cc12` [Compound B3], for which the equilibrium dissociation constant (KD) in assay [1] is > 50 µM. The dissociation constant Kd in assay [2] was > 50 µM.
Turning to `CN(C)CCCNc1ccc2c(c1)c(=O)c1cc(NCCCN(C)C)ccc1n2-c1ccc2occc2c1` [Compound B2], in assay [1], the KD was > 50 µM. The Kd in assay [2] was > 50 µM.
On to `CCN(C=CC(=O)Nc1ccc2c(c1)c(=O)c1ccccc1n2-c1ccc2occc2c1)CC` [Compound A13], for which, in assay [2], the Kd is > 50 µM.
As for `CN(C)C=CC(=O)Nc1ccc2c(c1)c(=O)c1ccccc1n2-c1ccc2occc2c1` [Compound A14], in assay [2], the Kd is > 50 µM.
`CC1CCN(C=CC(=O)Nc2ccc3c(c2)c(=O)c2ccccc2n3-c2ccc3occc3c2)CC1` [Compound A12]: the Kd in assay [2] was > 50 µM.
In the case of `CCN(CC)CCNc1ccc2c(c1)c(=O)c1cc(NCCN(CC)CC)ccc1n2-c1ccc2occc2c1` [Compound B9], the KD in assay [1] is > 50 µM. The Kd in assay [2] is > 50 µM.
As to `O=C(CCCN1CCOCC1)Nc1ccc2c(c1)c(=O)c1cc(NC(=O)CCCN3CCOCC3)ccc1n2-c1ccc2occc2c1` [Compound B11], the KD in assay [1] is > 50 µM. Moreover, in assay [2], the Kd is > 50 µM.
For the molecule `CN1CCN(CCCNc2ccc3c(c2)c(=O)c2cc(NCCCN4CCN(C)CC4)ccc2n3-c2ccc3occc3c2)CC1`, the KD in assay [1] is > 50 µM.
`O=C(CCN1CCCC1)Nc1ccc2c(c1)c(=O)c1cc(NC(=O)CCN3CCCC3)ccc1n2-c1ccc2occc2c1` [Compound B12]: in assay [1], the KD is > 50 µM. Moreover, the Kd in assay [2] was > 50 µM.
Regarding `CN1CCN(C=CC(=O)Nc2ccc3c(c2)c(=O)c2ccccc2n3-c2ccc3occc3c2)CC1` [Compound A15], the Kd in assay [2] is > 50 µM.
In assay [1], `CCN(CC)CCNc1ccc2c(c1)c(=O)c1ccccc1n2-c1ccc2occc2c1` [Compound A9] returned a KD of 34.1 µM. This molecule also gave a Kd in assay [2] of 34.1 µM.
Regarding `CN(C)CCNc1ccc2c(c1)c(=O)c1ccccc1n2-c1ccc2occc2c1` [Compound A8], the KD in assay [1] was > 50 µM. For the same molecule, the Kd in assay [2] is > 50 µM.
With `CN1CCN(CCCNc2ccc3c(c2)c(=O)c2ccccc2n3-c2ccc3occc3c2)CC1` [Compound A4], the KD in assay [1] was > 50 µM. The Kd in assay [2] was > 50 µM.
Regarding `O=c1c2cc(NCCN3CCOCC3)ccc2n(-c2ccc3occc3c2)c2ccc(NCCN3CCOCC3)cc12` [Compound B6], in assay [1], the KD is > 50 µM. The Kd in assay [2] is > 50 µM.
`O=c1c2cc(NCCc3ccccn3)ccc2n(-c2ccc3occc3c2)c2ccc(NCCc3ccccn3)cc12` [Compound B10]: in assay [1], the KD is > 50 µM. Also, the Kd in assay [2] was > 50 µM.
For the molecule `O=c1c2ccccc2n(-c2ccc3occc3c2)c2ccc(NCCCN3CCCC3)cc12` [Compound A7], in assay [1], the KD is > 50 µM. The Kd in assay [2] is > 50 µM.
As to `CN1CCN(CCCNc2ccc3c(c2)C(=O)c2cc(NCCCN4CCN(C)CC4)ccc2C3c2ccc3occc3c2)CC1` [Compound B4], the Kd in assay [2] was > 50 µM.
Turning to `CN1CCN(CCC(=O)Nc2ccc3c(c2)c(=O)c2ccccc2n3-c2ccc3occc3c2)CC1`, in assay [1], the KD was > 50 µM.
On to `CN(C)CCC(=O)Nc1ccc2c(c1)c(=O)c1ccccc1n2-c1ccc2occc2c1`, for which the dissociation constant (KD) in assay [1] was > 50 µM.
In the case of `O=c1c2ccccc2n(-c2ccc3occc3c2)c2ccc(NCCN3CCNCC3)cc12` [Compound A3], the KD in assay [1] was > 50 µM. Besides, in assay [2], the Kd is > 50 µM.
Regarding `CCN(CC)CCC(=O)Nc1ccc2c(c1)c(=O)c1ccccc1n2-c1ccc2occc2c1`, in assay [1], the KD is > 50 µM.
As for `CN(C)CCCNc1ccc2c(c1)c(=O)c1ccccc1n2-c1ccc2occc2c1` [Compound A2], the KD in assay [1] was > 50 µM. Moreover, in assay [2], the Kd is > 50 µM.
As to `CCN(CC)CCCNc1ccc2c(c1)c(=O)c1ccccc1n2-c1ccc2occc2c1` [Compound A1], the Kd in assay [2] is > 50 µM.
Take `O=c1c2ccccc2n(-c2ccc3occc3c2)c2ccc(NCCN3CCOCC3)cc12` [Compound A6]: in assay [1], the KD is > 50 µM. Further, the Kd in assay [2] is > 50 µM.
For `O=C(CCN1CCOCC1)Nc1ccc2c(c1)c(=O)c1ccccc1n2-c1ccc2occc2c1` [Compound A16], the Kd in assay [2] was > 50 µM.
For the molecule `O=c1c2ccccc2n(-c2ccc3occc3c2)c2ccc(NCCc3ccccn3)cc12` [Compound A10], the equilibrium dissociation constant (KD) in assay [1] was > 50 µM. In assay [2], the Kd is > 50 µM.
Consider `O=c1c2cc(NCCCN3CCOCC3)ccc2n(-c2ccc3occc3c2)c2ccc(NCCCN3CCOCC3)cc12` [Compound B5], for which the KD in assay [1] is > 50 µM. In addition, the Kd in assay [2] was > 50 µM.
